The TGI is the concentration giving total growth inhibition.

The values that follow come from PubChem BioAssay (NCI).

Test systems include MCF7 breast; ACHN renal; NCI-H522 lung; U251 CNS; TK-10 renal; A498 renal; SN12C renal; A549 NSCLC; SK-MEL-28 melanoma; BT-549 breast; HCT-15 colon; SNB-19 CNS; EKVX NSCLC; HL-60(TB) leukemia; OVCAR-3 ovarian; HT29 colon; COLO 205 colon; NCI-H23 lung; LOX IMVI melanoma; T-47D breast.
Experiment in all cases: DTP human tumour cell line panel, 48 h

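1) Cells in 96-well plates. 2) Compound, 48 h, 5 concentrations. 3) Linear interpolation between surrounding doses. 4) Unreached endpoint = highest concentration. TGI: concentration producing complete growth inhibition.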 Where a SMILES comes first, the peptide text is derived from it. The star is where a group is joined. ONb = O=[N+]([O-])c1ccc(CO*)cc1; Boc = CC(C)(C)OC(=O)*

On to `N#C/C(=C\c1cc(Cl)cc(Cl)c1)c1ccccn1`, for which the TGI is over 100 µM with MCF7 breast; over 100 µM in the assay with ACHN renal; over 100 µM in the assay with NCI-H522 lung; over 100 µM in the assay on U251 CNS; over 100 µM in the assay on TK-10 renal; 8.25 µM with A498 renal. Besides, the TGI with SN12C renal is over 100 µM; in the assay on A549 NSCLC, over 100 µM; in the assay with SK-MEL-28 melanoma it was over 100 µM; in the assay with BT-549 breast it was 48.7 µM; with HCT-15 colon, over 100 µM; in the assay on SNB-19 CNS, over 100 µM. Also, the TGI was 60 µM in the assay on EKVX NSCLC; over 100 µM in the assay on HL-60(TB) leukemia; over 100 µM with OVCAR-3 ovarian; over 100 µM in the assay with HT29 colon; over 100 µM in the assay on COLO 205 colon; over 100 µM in the assay on NCI-H23 lung.
For `CN1CCC(CN2c3ccccc3Sc3ccccc32)CC1`, the TGI amounted to 29.7 µM in the assay with ACHN renal; 28.3 µM in the assay with NCI-H522 lung; 29.2 µM with U251 CNS; 29.2 µM in the assay with TK-10 renal; 29 µM in the assay with A498 renal; 33.9 µM in the assay on SN12C renal. The TGI with A549 NSCLC was 28.4 µM; in the assay with SK-MEL-28 melanoma, 23.1 µM; with LOX IMVI melanoma it was 26.4 µM; in the assay on HCT-15 colon it was 32.4 µM; with SNB-19 CNS, 29.3 µM; in the assay on EKVX NSCLC it was 27.5 µM. The TGI came to 32.8 µM in the assay on HL-60(TB) leukemia; 29 µM in the assay on OVCAR-3 ovarian; 25.3 µM in the assay on HT29 colon; 27.1 µM in the assay on COLO 205 colon; 30 µM in the assay with NCI-H23 lung.
In the case of `CC(C)CC(NC(=O)OC(C)(C)C)C(=O)NC(CCC(=O)OCc1ccc([N+](=O)[O-])cc1)C(=O)OCc1ccc([N+](=O)[O-])cc1` (stereo not drawn) (Boc-Leu-Glu(ONb)-ONb; configuration not given here), the TGI is over 100 µM in the assay with ACHN renal; over 100 µM with U251 CNS; over 100 µM with TK-10 renal; over 100 µM in the assay with A498 renal; over 100 µM in the assay on SN12C renal; 30.9 µM in the assay on SK-MEL-28 melanoma. Further, the TGI with LOX IMVI melanoma was 63.8 µM; in the assay on HCT-15 colon, over 100 µM; with SNB-19 CNS, over 100 µM; with EKVX NSCLC it was over 100 µM; with HL-60(TB) leukemia, 19.1 µM; in the assay with OVCAR-3 ovarian, 77.4 µM. The TGI with HT29 colon was 94.7 µM; with COLO 205 colon, over 100 µM; in the assay on NCI-H23 lung, 59.4 µM; with T-47D breast, over 100 µM.
`NC1CC2NC3CCCCC3NC2CC1N` (stereo not drawn): the TGI is over 100 µM in the assay on MCF7 breast; over 100 µM in the assay with ACHN renal; 39.9 µM with NCI-H522 lung; over 100 µM in the assay on U251 CNS; over 100 µM in the assay with TK-10 renal; 79.4 µM in the assay on A498 renal. The TGI in the assay on SN12C renal, with A549 NSCLC, in the assay on SK-MEL-28 melanoma, with LOX IMVI melanoma, with BT-549 breast and in the assay on HCT-15 colon was over 100 µM each time. For the same compound, the TGI in the assay on SNB-19 CNS is over 100 µM; with EKVX NSCLC, over 100 µM; with HL-60(TB) leukemia, 94.9 µM; in the assay on OVCAR-3 ovarian, over 100 µM; in the assay on HT29 colon it was over 100 µM; with COLO 205 colon, over 100 µM. Also, the TGI with NCI-H23 lung was over 100 µM.
With `CCOC(=O)NC(NC1=NCCS1)(C(=O)OCC)C(F)(F)F` (stereo not drawn), the TGI in the assay on MCF7 breast, in the assay with ACHN renal, in the assay with NCI-H522 lung, in the assay with U251 CNS, in the assay on TK-10 renal and in the assay with A498 renal was over 100 µM each time. Further, the TGI in the assay with SN12C renal, with A549 NSCLC, in the assay with SK-MEL-28 melanoma, in the assay with LOX IMVI melanoma, in the assay with HCT-15 colon and in the assay with SNB-19 CNS was over 100 µM in each case. Further, the total growth inhibition concentration (TGI) with EKVX NSCLC, in the assay with HL-60(TB) leukemia, in the assay with OVCAR-3 ovarian, in the assay with HT29 colon, in the assay with COLO 205 colon and in the assay on NCI-H23 lung was over 100 µM throughout. Moreover, the TGI in the assay with T-47D breast is over 100 µM.
As to `CC1OC2(CC(OCc3ccccc3)C1OCc1ccccc1)OCCO2` (stereo not drawn), the TGI with MCF7 breast, in the assay with ACHN renal, in the assay on NCI-H522 lung, in the assay on U251 CNS, in the assay on TK-10 renal and in the assay with A498 renal was over 100 µM in each case. Also, the TGI in the assay on SN12C renal was over 100 µM; in the assay on A549 NSCLC, over 100 µM; in the assay on SK-MEL-28 melanoma it was over 100 µM; in the assay on LOX IMVI melanoma, over 100 µM; in the assay on BT-549 breast, over 100 µM; with HCT-15 colon, 90.5 µM. Further, the TGI in the assay with SNB-19 CNS is over 100 µM; in the assay with EKVX NSCLC it was over 100 µM; with HL-60(TB) leukemia it was 48.9 µM; with OVCAR-3 ovarian, over 100 µM; with HT29 colon it was 58.2 µM; with COLO 205 colon, over 100 µM. In the assay on NCI-H23 lung, this compound gave a TGI of over 100 µM.
As for `O=C1/C(=C/c2ccccc2O)N=C(c2ccccc2)N1c1nc2ccccc2s1`, the TGI in the assay on MCF7 breast was 69.2 µM; in the assay with ACHN renal, 64.3 µM; in the assay on NCI-H522 lung, 17.2 µM; with U251 CNS, 28.7 µM; with TK-10 renal, 74.9 µM; in the assay with A498 renal, 53.1 µM. For the same compound, the TGI in the assay with SK-MEL-28 melanoma was over 100 µM; in the assay on LOX IMVI melanoma, over 100 µM; in the assay with HCT-15 colon, 44.9 µM; with EKVX NSCLC, over 100 µM; in the assay with HL-60(TB) leukemia, 2.97 µM; in the assay with OVCAR-3 ovarian, 54.3 µM. In addition, the TGI in the assay on HT29 colon is 74 µM; in the assay on NCI-H23 lung it was 38.5 µM; in the assay with T-47D breast, over 100 µM.
As to `Cc1ccc(S(=O)(=O)OCC23CCC(CC2)C2CC23)cc1` (stereo not drawn), the TGI in the assay on ACHN renal, in the assay on U251 CNS, in the assay on TK-10 renal, with A498 renal, with SN12C renal and with A549 NSCLC was over 100 µM in each case. The total growth inhibition concentration (TGI) in the assay on SK-MEL-28 melanoma was over 100 µM; with LOX IMVI melanoma, over 100 µM; with HCT-15 colon, over 100 µM; in the assay on SNB-19 CNS it was over 100 µM; in the assay with HL-60(TB) leukemia it was 39.1 µM; with OVCAR-3 ovarian, over 100 µM. The TGI in the assay on HT29 colon, in the assay with COLO 205 colon and in the assay with NCI-H23 lung was over 100 µM throughout.
